Experimental data: US9511052B2, “Mineralocorticoid receptor antagonists” (Merck Sharp & Dohme Corp., priority 2012, dated 2016)

Target: T1, full-length human Mineralocorticoid Receptor (MR) (Homo sapiens, UniProt P08235)
T1 construct: host or cells: PathHunter CHO-K1 MR cells
T1 sequence (P08235 1-984): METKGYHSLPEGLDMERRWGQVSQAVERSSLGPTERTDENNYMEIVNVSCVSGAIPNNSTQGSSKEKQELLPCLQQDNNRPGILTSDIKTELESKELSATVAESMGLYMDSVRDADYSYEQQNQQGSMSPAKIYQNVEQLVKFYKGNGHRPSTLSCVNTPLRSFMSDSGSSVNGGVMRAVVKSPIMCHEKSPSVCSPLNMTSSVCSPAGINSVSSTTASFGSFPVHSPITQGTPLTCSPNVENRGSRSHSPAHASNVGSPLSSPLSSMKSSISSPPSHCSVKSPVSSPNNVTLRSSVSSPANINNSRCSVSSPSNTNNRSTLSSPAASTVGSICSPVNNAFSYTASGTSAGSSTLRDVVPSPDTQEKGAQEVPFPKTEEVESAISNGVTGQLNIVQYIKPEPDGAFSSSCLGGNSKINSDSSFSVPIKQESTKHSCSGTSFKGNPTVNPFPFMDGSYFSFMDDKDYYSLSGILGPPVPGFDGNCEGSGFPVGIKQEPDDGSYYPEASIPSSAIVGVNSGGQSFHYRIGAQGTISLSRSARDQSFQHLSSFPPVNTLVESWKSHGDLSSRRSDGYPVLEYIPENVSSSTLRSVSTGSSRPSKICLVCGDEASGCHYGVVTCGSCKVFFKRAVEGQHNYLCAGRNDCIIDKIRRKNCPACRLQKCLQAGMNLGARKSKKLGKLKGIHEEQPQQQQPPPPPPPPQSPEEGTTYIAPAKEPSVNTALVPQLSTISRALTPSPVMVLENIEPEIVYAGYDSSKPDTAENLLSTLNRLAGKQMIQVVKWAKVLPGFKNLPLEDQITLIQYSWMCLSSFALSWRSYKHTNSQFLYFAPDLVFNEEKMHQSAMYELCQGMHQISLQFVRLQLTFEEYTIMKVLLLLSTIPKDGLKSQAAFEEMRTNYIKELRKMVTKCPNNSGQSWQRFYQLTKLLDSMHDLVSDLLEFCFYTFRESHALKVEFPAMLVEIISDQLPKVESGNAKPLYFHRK
Experiment: human MR NH Pro assay (PathHunter Protein:Protein interaction assay), MR antagonism
Assay type: cell-based
Conditions: IP = inflection point of the dose-response curve; CHO-K1 cells overexpressing human MR, aldosterone about 0.3 nM to about 1 nM, 6 hours at 37° C.
Text: The activity of the compounds of the present invention regarding mineralocorticoid receptor antagonism can be evaluated using the following assay.
Assessment of MR Potency in HMR NH Pro Assay
The human MR NH Pro assay is a commercially available PathHunter™ Protein:Protein interaction assay (DiscoveRx; http://www.discoverx.com/nhrs/prod-nhrs.php) that measures the ability of compounds to antagonize full-length human Mineralocorticoid Receptor (MR) binding to a coactivator peptide.
Stock solution was prepared at 10 μM in DMSO and stored at −20° C. for assay, dilute in assay media to 1.8 or 6 nM (6× of final concentration=about 0.3 nM to about 1.0 nM)
5. Cell line: PathHunter CHO-K1 MR cells Cat #93-0456C2, Lot No: 09B0913, from operation liquid nitrogen stock.
6. Control Antagonist: Spironolactone: Sigma #S-3378 and Eplerenone Sigma #107724-20-9 (10 mM stock concentration also prepared in DMSO and stored at −20° C.).
1. Cells are grown in F12+FBS+Hygromycin+pen/strep+Genetin
2. Cells are collected with 0.05% trypsin and the cell suspension is spun and resuspended in a volume of F12+1.5% CD-FBS and counted.
3. The cells concentration was adjusted to 4×10^5 cells/mL.
4. Cells were (25 μL/well) added to the wells of a 384 well plate.
5. The plate was then incubated at 37° C. over night in a humidified incubator with 5% CO2.
6. Test compounds were titrated starting at 4.4 mM, 10-point titration in 1:3 dilution.
Protocol for 384 well plate format: 6 hr treatment:
1. 10K exponentially growing cells/well (25 μL) were resuspended in assay media and plated into each well using the Multidrop (Thermo Electron) (use white wall, clear bottom assay plates (Costar #3570) and incubated overnight at 37° C., 5% CO2.
2. 0.25 μL 120× test compound (final DMSO concentration should be <1%) was added to each well n=2, 10 point titrations starting at 36.7 μM final concentration.
4. 5 μL of assay media was added to all wells in column 23 and 24.
5. Cells were then incubated for 6 hrs at 37° C., 5% CO2.
6. 15 μL 3× DiscoveRx detection reagent was then added to each well.
7. Plates were incubated for 1 hour at room temperature in the dark.
8. Plates were read on Envision (PerkinElmer) luminesence plate reader and analyzed using ADA.

IC50 | SMILES
21 nM | CCC(O)C(CC)(c1ccc(C(F)(F)F)cc1)n1ncc2c(NS(C)(=O)=O)cc(F)cc21 (single isomer, unassigned) [Compound 17, N-(6-fluoro-1-(4-hydroxy-3-(4-(trifluoromethyl)phenyl)hexan-3-yl)-1H-indazol-4-yl)methanesulfonamide]
9 nM | CCC(O)C(CC)(c1ccc(C(F)(F)F)cc1)n1ncc2c(NS(C)(=O)=O)cc(F)cc21 (single isomer, unassigned) [Compound 18, N-(6-fluoro-1-(4-hydroxy-3-(4-(trifluoromethyl)phenyl)hexan-3-yl)-1H-indazol-4-yl)methanesulfonamide]
136 nM | CCC(O)C(CC)(c1ccc(C#N)cc1)n1ncc2c(NS(C)(=O)=O)cc(F)cc21 (single isomer, unassigned) [Compound 19]
138 nM | CCC(O)C(CC)(c1ccc(C#N)cc1)n1ncc2c(NS(C)(=O)=O)cc(F)cc21 (single isomer, unassigned) [Compound 20, N-(1-(3-(4-cyanophenyl)-4-hydroxyhexan-3-yl)-6-fluoro-1H-indazol-4-yl)methanesulfonamide]
333 nM | CCC(c1ccc(S(F)(F)(F)(F)F)cc1)(C(C)O)n1ncc2c(NS(C)(=O)=O)cccc21 (single isomer, unassigned) [Compound 21, N-(1-{2-hydroxy-3-[4-(pentafluoro-λ^6-sulfanyl)phenyl]pentan-3-yl}-1H-indazol-4-yl)methanesulfonamide]
3810 nM | CCC(c1ccc(S(F)(F)(F)(F)F)cc1)(C(C)O)n1ncc2c(NS(C)(=O)=O)cccc21 (single isomer, unassigned) [Compound 22, N-(1-{2-hydroxy-3-[4-(pentafluoro-λ^6-sulfanyl)phenyl]pentan-3-yl}-1H-indazol-4-yl)methanesulfonamide]
4740 nM | CCC(c1ccc(S(F)(F)(F)(F)F)cc1)(C(C)O)n1ncc2c(NS(C)(=O)=O)cccc21 (single isomer, unassigned) [Compound 23, N-(1-{2-hydroxy-3-[4-(pentafluoro-λ^6-sulfanyl)phenyl]pentan-3-yl}-1H-indazol-4-yl)methanesulfonamide]
152 nM | CCC(c1ccc(S(F)(F)(F)(F)F)cc1)(C(C)O)n1ncc2c(NS(C)(=O)=O)cccc21 (single isomer, unassigned) [Compound 24, N-(1-{2-hydroxy-3-[4-(pentafluoro-λ^6-sulfanyl)phenyl]pentan-3-yl}-1H-indazol-4-yl)methanesulfonamide]
48 nM | CCC(O)C(CC)(c1ccc(S(F)(F)(F)(F)F)cc1)n1ncc2c(NS(C)(=O)=O)cccc21 (single isomer, unassigned) [Compound 25, N-(1-{4-hydroxy-3-[4-(pentafluoro-λ^6-sulfanyl)phenyl]hexan-3-yl}-1H-indazol-4-yl)methanesulfonamide]
1130 nM | CCC(O)C(CC)(c1ccc(S(F)(F)(F)(F)F)cc1)n1ncc2c(NS(C)(=O)=O)cccc21 (single isomer, unassigned) [Compound 26, N-(1-{4-hydroxy-3-[4-(pentafluoro-λ^6-sulfanyl)phenyl]hexan-3-yl}-1H-indazol-4-yl)methanesulfonamide]
27 nM | CCC(c1ccc(C(F)(F)F)cc1)(C(C)O)n1ncc2c(NS(C)(=O)=O)cc(F)cc21 (single isomer, unassigned) [Compound 32, N-(6-fluoro-1-(2-hydroxy-3-(4-(trifluoromethyl)phenyl)pentan-3-yl)-1H-indazol-4-yl)methanesulfonamide]
1110 nM | CCC(c1ccc(C(F)(F)F)cc1)(C(C)O)n1ncc2c(NS(C)(=O)=O)cc(F)cc21 (single isomer, unassigned) [Compound 33, N-(6-fluoro-1-(2-hydroxy-3-(4-(trifluoromethyl)phenyl)pentan-3-yl)-1H-indazol-4-yl)methanesulfonamide]
1140 nM | CCC(c1ccc(C(F)(F)F)cc1)(C(C)O)n1ncc2c(NS(C)(=O)=O)cc(F)cc21 (single isomer, unassigned) [Compound 34, N-(6-fluoro-1-(2-hydroxy-3-(4-(trifluoromethyl)phenyl)pentan-3-yl)-1H-indazol-4-yl)methanesulfonamide]
95 nM | CC(O)C(CC(F)F)(c1ccc(C(F)(F)F)cc1)n1ncc2c(NS(C)(=O)=O)cccc21 (single isomer, unassigned) [Compound 36, N-(1-(1,1-difluoro-4-hydroxy-3-(4-(trifluoromethyl)phenyl)pentan-3-yl)-1H-indazol-4-yl)methanesulfonamide]
596 nM | CC(O)C(CC(F)F)(c1ccc(C(F)(F)F)cc1)n1ncc2c(NS(C)(=O)=O)cccc21 (single isomer, unassigned) [Compound 38, N-(1-(1,1-difluoro-4-hydroxy-3-(4-(trifluoromethyl)phenyl)pentan-3-yl)-1H-indazol-4-yl)methanesulfonamide]
23 nM | CCC(O)C(CC(F)F)(c1ccc(C(F)(F)F)cc1)n1ncc2c(NS(C)(=O)=O)cccc21 (single isomer, unassigned) [Compound 39, N-(1-(1,1-difluoro-4-hydroxy-3-(4-(trifluoromethyl)phenyl)hexan-3-yl)-1H-indazol-4-yl)methanesulfonamide]
15 nM | CCC(O)C(CC(F)F)(c1ccc(C(F)(F)F)cc1)n1ncc2c(NS(C)(=O)=O)cccc21 (single isomer, unassigned) [Compound 40, N-(1-(1,1-difluoro-4-hydroxy-3-(4-(trifluoromethyl)phenyl)hexan-3-yl)-1H-indazol-4-yl)methanesulfonamide]
543 nM | CCC(O)C(CC(F)F)(c1ccc(C(F)(F)F)cc1)n1ncc2c(NS(C)(=O)=O)cccc21 (single isomer, unassigned) [Compound 41, N-(1-(1,1-difluoro-4-hydroxy-3-(4-(trifluoromethyl)phenyl)hexan-3-yl)-1H-indazol-4-yl)methanesulfonamide]
1370 nM | CCC(O)C(CC(F)F)(c1ccc(C(F)(F)F)cc1)n1ncc2c(NS(C)(=O)=O)cccc21 (single isomer, unassigned) [Compound 42, N-(1-(1,1-difluoro-4-hydroxy-3-(4-(trifluoromethyl)phenyl)hexan-3-yl)-1H-indazol-4-yl)methanesulfonamide]
388 nM | CS(=O)(=O)Nc1cccc2c1cnn2C(CO)(CC(F)F)c1ccc(C(F)(F)F)cc1 (single isomer, unassigned) [Compound 43, N-(1-(4,4-difluoro-1-hydroxy-2-(4-(trifluoromethyl)phenyl)butan-2-yl)-1H-indazol-4-yl)methanesulfonamide]
539 nM | CS(=O)(=O)Nc1cccc2c1cnn2C(CO)(CC(F)F)c1ccc(C(F)(F)F)cc1 (single isomer, unassigned) [Compound 44, N-(1-(4,4-difluoro-l-hydroxy-2-(4-(trifluoromethyl)phenyl)butan-2-yl)-1H-indazol-4-yl)methanesulfonamide]
